Each structure is given as a SMILES string.

Experimental findings from US8642640B2, “1-phenylpyrrole derivatives” (Exelixis, Inc., priority 2008, dated 2014) are described below.

The target in series [1] is T1, human mineralocorticoid receptor (hMR) (Homo sapiens, UniProt P08235).
T1 construct: expressed in transfected cells; host or cells: HEK293
T1 sequence (P08235 726-964 limits assumed): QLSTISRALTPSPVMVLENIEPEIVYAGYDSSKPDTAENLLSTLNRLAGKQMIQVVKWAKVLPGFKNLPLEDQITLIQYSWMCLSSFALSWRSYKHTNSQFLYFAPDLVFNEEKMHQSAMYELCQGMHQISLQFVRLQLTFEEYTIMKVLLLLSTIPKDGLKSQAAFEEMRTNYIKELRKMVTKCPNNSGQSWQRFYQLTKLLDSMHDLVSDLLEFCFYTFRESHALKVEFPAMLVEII
Kind of series: GAL4-hMR-LBD luciferase reporter assay in HEK293 cells with 1 nM aldosterone (Test Example 1).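 On Imax: 0% is DMSO-only control and 100% is 1 nM aldosterone alone.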 The class given is cell-based.

The nature of series [2]: Plasma concentration after intragastric administration to cynomolgus monkey (Test Example 2). The class given is in vivo. The note with it: male cynomolgus monkey, 3 mg/kg intragastric in 0.5% MC, plasma, LC-MS/MS. Here is the method: Cynomolgus monkey (male) was used, and it was fasted from the day before administration of the test compound.
Administration samples were prepared by adding a 0.5% MC (methyl cellulose) solution to the Test Compound, so that the dose becomes 3 mg/2 mL/kg. Each of the administration samples was administered intragastrically to the cynomolgus monkey by using a tube. After the samples were administered, approximately 5 mL of 0.5% MC was administered. For each of the administration samples, a group of two cynomolgus monkeys was administered.
With respect to collection of blood, it was conducted by collecting approximately 0.5 mL of blood from crotch vein using a glass syringe treated with heparin, before administration, and 30 minutes, 1, 2, 4, 6, 8, 24 and 48 hours after administration. Blood was centrifuged (1,700×g, 15 min, 4° C.) to obtain plasma. Plasma was stored in a freezer (−20° C.) until pretreatment.
Preparation of standard solution and internal standard (IS) solution: Each of the Test Compounds was dissolved in DMSO (dimethyl sulfoxide) to prepare a solution of 10 mM each. Each of the compound solution was diluted with acetonitrile, and thus standard solution was prepared. Further, niflumic acid (Wako Pure Chemical Industries, Ltd.) was dissolved in DMSO at the concentration of 2 mM, followed by dilution with acetonitrile to prepare an IS solution of 2 μM.
Pretreatment of plasma samples: 20 μL of plasma sample was collected, and then 25 μL of purified water, 100 μL of acetonitrile, and 100 μL of methanol was added. For the preparation of a calibration curve, 25 μL of purified water, 20 μL of each of the standard solutions (acetonitrile solution), 80 μL of acetonitrile, and 100 μL of methanol were added to 20 μL of blank plasma. 40 μL of the acetonitrile solution of IS was added to all of the samples, and then the samples were stirred, filtered by suction using Captiva filter plate (Varian, Inc.), and then the filtrate was used as the sample for LC-MS/MS analysis.
Quantitative Determination of Test Compound: Concentration in plasma was analyzed by LC-MS/MS method for each Test Compound.
Analysis: Pharmacokinetic parameter was calculated from concentration of each of the drugs in plasma, by using WinNonlin Professional (Ver. 4.0.1, Pharsight Corporation). Here, Noncompartment model was used as the model for parameter calculation.

Turning to `Cc1cc(C(=O)Nc2ccc(S(C)(=O)=O)cc2)c(C)n1-c1ccc(F)cc1C(F)(F)F` [Reference compound B, 1-[4-fluoro-2-(trifluoromethyl)phenyl]-2,5-dimethyl-N-[4-(methylsulfonyl)phenyl]-1H-pyrrole-3-carboxamide, reference compound], the Emax in series [1] (HEK293, read-out: Imax) turned out to be 93%. Further, the IC50 in series [1] (concentration showing Imax/2, HEK293, GAL4-hMR-LBD, 1 nM aldosterone, overnight, read-out: ICmax50) was 12 nM. The “AUC, area under the plasma concentration versus time curve” value in series [2] (noncompartment model) was 170 ng·h/mL. For the same compound, the Cmax in series [2] (po, read-out: Cmax, maximum concentration) was determined as 10 ng/mL.
